Values after ≈ are worked out from the molar mass of the structure shown. Where two headings read alike, the source gives them in different places. Positions of bridges follow the written chain, without caps; N, C: chain ends. Non-standard residues stand in square brackets, D forms with d. Residues, ends and D or L forms follow the SMILES beside them. *: point of attachment. Phenylacetyl(3-Cl) = O=C(Cc1cccc(Cl)c1)*; Phenylacetyl(4-Cl) = O=C(Cc1ccc(Cl)cc1)*; Benzoyl(4-Et) = CCc1ccc(C(=O)*)cc1; X13 = O=C(Cc1ccc(Cl)cc1Cl)*; X22 = CC(C)c1ccc(C(=O)*)cc1; X14 = Cc1ccc(C(=O)*)cc1C; Dab = NCC[C@H](N)C(=O)O; Abu = CC[C@H](N)C(=O)O; Dap = NC[C@H](N)C(=O)O
Legend:
[1] = system: P. aeruginosa ATCC 27853; assay: In vivo efficacy in mouse blood infection model (neutropenic Swiss mice); conditions: compound, free base 4 mg/kg intravenously 2 h after inoculation, blood at 4 h
Experimental: P. aeruginosa ATCC 27853, A. baumannii ATCC 19606 and K. pneumoniae FADDI-KP032 were subcultured on nutrient agar plates. One colony of each bacterial strain was dispersed in 10-mL CAMHB and incubated overnight. On day 2, an aliquot (0.2 mL) of each overnight culture suspension was dispersed in 20-mL CAMHB and incubated for 1.5-2.5 h for production of early log-phase growth bacterial culture. The bacteria in the early log-phase growth suspension were concentrated by centrifugation (3,220 g for 10 min) and re-suspended in sterile 0.9% saline for inoculation into mice. The bacterial cell concentration (colony forming unit [CFU]/mL) in saline was estimated by determining the optical density (OD) of the suspension at 600 nm, and confirmed by plating the suspension on nutrient agar plates. Swiss mice (22 to 28 g) were rendered neutropenic by injecting two doses of cyclophosphamide intraperitoneally, −4 day (150 mg/kg) and −1 day (100 mg/kg) prior to inoculation. Bloodstream infection was established by injecting intravenously 50 μL of early log-phase bacterial suspension (10^8-10^9 CFU/mL). The exact injection volume for each bacterial suspension was calculated based upon the OD value of the bacterial suspension and the desired inoculum for each isolate.
Solutions for administration of colistin, polymyxin B or the compounds were prepared at a concentration of 1 mg (free base) per mL in sterile 0.9% saline. At 2 h after inoculation, a mouse in the treatment groups was injected intravenously with one of the above solutions at 4 μL/g body weight (BW) (i.e. free base 4 mg/kg BW), while the same volume of saline was injected into the control mice. At 0 h or at 4 h after the administration of antibacterial drug or saline (control), animals were euthanised by inhalation of overdose isoflurane. The skin on the chest and fore-paws of each animal was thoroughly cleansed with 70% ethanol and Betadine®. The blood was collected via cardiac puncture using a 1-mL syringe rinsed with heparin (5,000 IU/mL), diluted serially in sterile 0.9% saline and plated on nutrient agar plates using a spiral plater.
The agar plates were incubated at 37° C. overnight. The bacterial colonies on the plate were counted and CFU/mL of the blood was calculated. The log10 CFU/mL of blood in each mouse was calculated. The in vivo activity of the compounds against the bacteria was calculated as the difference of the log10 CFU/mL values between the treated mice and the control mice at 4 h (Δ log=log10 (treated)CFU/mL−log10 (control)CFU/mL).
Any compound showing a decrease in bacterial loading (Δ log) of ≥2 at 4 h is considered to have good in vivo efficacy in this initial screening model.

[2] = system: Pseudomonas aeruginosa
Outline: (§1)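 Broth microdilution, CAMHB, per CLSI M100-S18; compounds as TFA salts; polymyxin B (sulphate) control; read-out MIC.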

[3] = system: Enterobacter cloacae
Outline: as §1

[4] = system: Klebsiella pneumoniae
Outline: as §1

[5] = system: Acinetobacter baumannii
Outline: as §1

| Structure (SMILES) | Δ log (Treated-Control at 4 h) [1] | MIC [2] [µg/mL] | Minimum inhibitory concentration, Pa ATCC 27853 [2] [µg/mL] | Minimum inhibitory concentration, Pa FADDI-PA022 [2] [µg/mL] | Minimum inhibitory concentration, Pa FADDI-PA025 [2] [µg/mL] | Minimum inhibitory concentration, Ec FADDI-EC001 [3] [µg/mL] | Minimum inhibitory concentration, Ec FADDI-EC003 [3] [µg/mL] | Minimum inhibitory concentration, Ec FADDI-EC006 [3] [µg/mL] | MIC [4] [µg/mL] | MIC [5] [µg/mL] | Minimum inhibitory concentration, Ab A ATCC 17978 [5] [µg/mL] | Minimum inhibitory concentration, Ab ATCC 19606 [5] [µg/mL] | Minimum inhibitory concentration, Ab FADDI-AB034 [5] [µg/mL] | also measured |
| --- | --- | --- | --- | --- | --- | --- | --- | --- | --- | --- | --- | --- | --- | --- |
| CC(C)C[C@H]1NC(=O)[C@H](CCN)NC(=O)[C@@H](NC(=O)[C@H](CN)NC(=O)[C@@H](NC(=O)[C@H](CCN)NC(=O)Cc2cccc(Cl)c2)[C@@H](C)O)CCNC(=O)[C@H]([C@@H](C)O)NC(=O)[C@H](CCN)NC(=O)[C@H](CCN)NC(=O)[C@H]([C@@H](C)O)NC1=O [Compound 61] ({Phenylacetyl(3-Cl)}-[Dab]T[Dap][Dab][Dab][dL]T[Dab][Dab]T; lactam 4-C) | −4.75 log10 CFU/mL |  |  |  |  |  |  |  |  |  |  |  |  | MIC ([2]; P. aeruginosa ATCC 27853): 0.5 µg/mL (≈ 0.433 µM); Minimum inhibitory concentration, Pa ATCC 27853 ([2]; Pseudomonas aeruginosa ATCC 27853, broth microdilution in CAMHB): 0.5 µg/mL (≈ 0.433 µM); Minimum inhibitory concentration, Pa FADDI-PA022 ([2]; Pseudomonas aeruginosa FADDI-PA022, broth microdilution in CAMHB): 0.5 µg/mL (≈ 0.433 µM); Minimum inhibitory concentration, Pa FADDI-PA025 ([2]; Pseudomonas aeruginosa FADDI-PA025, broth microdilution in CAMHB): >32 µg/mL; Minimum inhibitory concentration, Ec FADDI-EC001 ([3]; Enterobacter cloacae FADDI-EC001, broth microdilution in CAMHB): 0.25 µg/mL (≈ 0.216 µM); Minimum inhibitory concentration, Ec FADDI-EC003 ([3]; Enterobacter cloacae FADDI-EC003, broth microdilution in CAMHB): 0.25 µg/mL (≈ 0.216 µM); Minimum inhibitory concentration, Ec FADDI-EC006 ([3]; Enterobacter cloacae FADDI-EC006, broth microdilution in CAMHB): 0.25 µg/mL (≈ 0.216 µM); MIC ([4]; K. pneumoniae FADDI-KP032): 0.25 µg/mL (≈ 0.216 µM); MIC ([5]; A. baumannii ATCC 19606): 4 µg/mL (≈ 3.46 µM); Minimum inhibitory concentration, Ab A ATCC 17978 ([5]; Acinetobacter baumannii ATCC 17978, broth microdilution in CAMHB): 2 µg/mL (≈ 1.73 µM); Minimum inhibitory concentration, Ab ATCC 19606 ([5]; Acinetobacter baumannii ATCC 19606, broth microdilution in CAMHB): 4 µg/mL (≈ 3.46 µM); Minimum inhibitory concentration, Ab FADDI-AB034 ([5]; Acinetobacter baumannii FADDI-AB034, broth microdilution in CAMHB): 1 µg/mL (≈ 0.865 µM) |
| CC(C)C[C@H]1NC(=O)[C@H](CCN)NC(=O)[C@@H](NC(=O)[C@H](CN)NC(=O)[C@@H](NC(=O)[C@H](CCN)NC(=O)Cc2ccc(Cl)cc2Cl)[C@@H](C)O)CCNC(=O)[C@H]([C@@H](C)O)NC(=O)[C@H](CCN)NC(=O)[C@H](CCN)NC(=O)[C@H]([C@@H](C)O)NC1=O [Compound 62] (X13-[Dab]T[Dap][Dab][Dab][dL]T[Dab][Dab]T; lactam 4-C) | −2.69 log10 CFU/mL | 0.5 (≈ 0.42 µM) | 0.5 (≈ 0.42 µM) | 1 (≈ 0.84 µM) | 1 (≈ 0.84 µM) | <0.125 | <0.125 | 0.25 (≈ 0.21 µM) | 0.25 (≈ 0.21 µM) | 2 (≈ 1.68 µM) | 1 (≈ 0.84 µM) | 2 (≈ 1.68 µM) | 1 (≈ 0.84 µM) |  |
| CC[C@@H]1NC(=O)[C@@H](CC(C)C)NC(=O)[C@H](CCN)NC(=O)[C@@H](NC(=O)[C@H](CN)NC(=O)[C@@H](NC(=O)[C@H](CCN)NC(=O)Cc2ccc(Cl)cc2Cl)[C@@H](C)O)CCNC(=O)[C@H]([C@@H](C)O)NC(=O)[C@H](CCN)NC(=O)[C@H](CCN)NC1=O [Compound 70] (X13-[Dab]T[Dap][Dab][Dab][dL][Abu][Dab][Dab]T; lactam 4-C) | −3.11 log10 CFU/mL | 1 (≈ 0.852 µM) | 1 (≈ 0.852 µM) | 1 (≈ 0.852 µM) | 2 (≈ 1.7 µM) | 0.5 (≈ 0.426 µM) | 0.25 (≈ 0.213 µM) | 0.5 (≈ 0.426 µM) | 0.25 (≈ 0.213 µM) | 0.5 (≈ 0.426 µM) | 0.5 (≈ 0.426 µM) | 0.5 (≈ 0.426 µM) | 1 (≈ 0.852 µM) |  |
| CC[C@@H]1NC(=O)[C@@H](CC(C)C)NC(=O)[C@H](CCN)NC(=O)[C@@H](NC(=O)[C@H](CN)NC(=O)[C@@H](NC(=O)[C@H](CCN)NC(=O)Cc2ccc(Cl)cc2)[C@@H](C)O)CCNC(=O)[C@H]([C@@H](C)O)NC(=O)[C@H](CCN)NC(=O)[C@H](CCN)NC1=O [Compound 77] ({Phenylacetyl(4-Cl)}-[Dab]T[Dap][Dab][Dab][dL][Abu][Dab][Dab]T; lactam 4-C) | −2.28 log10 CFU/mL | 0.25 (≈ 0.219 µM) | 0.25 (≈ 0.219 µM) | 0.5 (≈ 0.439 µM) | 4 (≈ 3.51 µM) | 0.5 (≈ 0.439 µM) | <0.125 | 0.25 (≈ 0.219 µM) | <0.125 | 4 (≈ 3.51 µM) | 0.5 (≈ 0.439 µM) | 4 (≈ 3.51 µM) | 1 (≈ 0.877 µM) |  |
| CC[C@@H]1NC(=O)[C@@H](CC(C)C)NC(=O)[C@H](CCN)NC(=O)[C@@H](NC(=O)[C@H](CN)NC(=O)[C@@H](NC(=O)[C@H](CCN)NC(=O)c2ccc(C)c(C)c2)[C@@H](C)O)CCNC(=O)[C@H]([C@@H](C)O)NC(=O)[C@H](CCN)NC(=O)[C@H](CCN)NC1=O [Compound 83] (X14-[Dab]T[Dap][Dab][Dab][dL][Abu][Dab][Dab]T; lactam 4-C) | −3.63 log10 CFU/mL | 1 (≈ 0.893 µM) | 1 (≈ 0.893 µM) | 1 (≈ 0.893 µM) | 2 (≈ 1.79 µM) | 0.25 (≈ 0.223 µM) | 0.25 (≈ 0.223 µM) | 0.25 (≈ 0.223 µM) | 0.25 (≈ 0.223 µM) | 2 (≈ 1.79 µM) | 1 (≈ 0.893 µM) | 2 (≈ 1.79 µM) | 0.5 (≈ 0.447 µM) |  |
| CC[C@@H]1NC(=O)[C@@H](CC(C)C)NC(=O)[C@H](CCN)NC(=O)[C@@H](NC(=O)[C@H](CN)NC(=O)[C@@H](NC(=O)[C@H](CCN)NC(=O)c2ccc(C(C)C)cc2)[C@@H](C)O)CCNC(=O)[C@H]([C@@H](C)O)NC(=O)[C@H](CCN)NC(=O)[C@H](CCN)NC1=O [Compound 99] (X22-[Dab]T[Dap][Dab][Dab][dL][Abu][Dab][Dab]T; lactam 4-C) | −3.21 log10 CFU/mL | 1 (≈ 0.882 µM) | 1 (≈ 0.882 µM) | 0.5 (≈ 0.441 µM) | 2 (≈ 1.76 µM) | 0.25 (≈ 0.221 µM) | 0.25 (≈ 0.221 µM) | 0.5 (≈ 0.441 µM) | 0.5 (≈ 0.441 µM) | 1 (≈ 0.882 µM) | 0.25 (≈ 0.221 µM) | 1 (≈ 0.882 µM) | 0.25 (≈ 0.221 µM) |  |
| CCc1ccc(C(=O)N[C@@H](CCN)C(=O)N[C@H](C(=O)N[C@@H](CN)C(=O)N[C@H]2CCNC(=O)[C@H]([C@@H](C)O)NC(=O)[C@H](CCN)NC(=O)[C@H](CCN)NC(=O)[C@H](CC)NC(=O)[C@@H](CC(C)C)NC(=O)[C@H](CCN)NC2=O)[C@@H](C)O)cc1 [Compound 100] ({Benzoyl(4-Et)}-[Dab]T[Dap][Dab][Dab][dL][Abu][Dab][Dab]T; lactam 4-C) | −3.83 (−3.83) log10 CFU/mL | 0.5 (≈ 0.447 µM) | 0.5 (≈ 0.447 µM) | 0.5 (≈ 0.447 µM) | 2 (≈ 1.79 µM) | 0.25 (≈ 0.223 µM) | 0.5 (≈ 0.447 µM) | 0.5 (≈ 0.447 µM) | 0.5 (≈ 0.447 µM) | 2 (≈ 1.79 µM) | 1 (≈ 0.893 µM) | 2 (≈ 1.79 µM) | 1 (≈ 0.893 µM) |  |
